{"source": "patent US20230085307A1", "about": "“PYRIDAZINONE COMPOUND AND HERBICIDE” (NISSAN CHEMICAL CORPORATION, priority 2019, published 2023)", "key": {"late watergrass": {"test_system": "late watergrass", "test": "Test Example 1: herbicidal activity, application before weed generation under submerged conditions (Table 16, symbol A)", "type": "in vivo, late watergrass (Echinochloa oryzicola)", "conditions": "320 g/ha applied herbicide", "how_it_was_run": "(§1)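 Alluvial soil was flooded to 4 cm depth, weed seeds were sown mixed and 2.5-leaf rice seedlings were transplanted. On sowing day, the compound's emulsion, diluted in water to a set dose, was applied to the water surface. Plants grew at 25–30 °C and were scored 0–5 after three weeks.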"}, "velvetleaf [1]": {"test_system": "velvetleaf", "test": "Test Example 4: herbicidal effect by soil treatment (Table 19, symbol M)", "type": "in vivo, velvetleaf (Abutilon theophrasti)", "conditions": "AAH 320 g/ha", "how_it_was_run": "(§2)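 Scoring uses the grading scale of an earlier test, three weeks post-application. Treatment consists of spraying a diluted emulsion formulation across the surface of sterilized diluvial soil in which seeds are buried near 1.5 cm deep; boxes are kept in a greenhouse between 25° C. and 30° C.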"}, "chickweed [2]": {"test_system": "chickweed", "test": "Test Example 5: herbicidal effect by foliage application, plastic box (Table 20, symbol P)", "type": "in vivo, common chickweed (Stellaria media)", "conditions": "foliage application, AAH 320 g/ha, three weeks after application", "how_it_was_run": "(§3)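 Post-emergence foliar test in sterilized diluvial soil. Compound applied as water-diluted emulsion at a predetermined rate to 14-day-old plants; evaluation at three weeks.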"}, "persian speedwell [3]": {"test_system": "persian speedwell", "test": "Test Example 4: herbicidal effect by soil treatment (Table 19, symbol R)", "type": "in vivo, Persian speedwell (Veronica persica)", "conditions": "AAH 320 g/ha", "how_it_was_run": "as §2"}, "lambsquarters [4]": {"test_system": "lambsquarters", "test": "Test Example 4: herbicidal effect by soil treatment (Table 19, symbol O)", "type": "in vivo, lambsquarters (Chenopodium album)", "conditions": "AAH 320 g/ha", "how_it_was_run": "as §2"}, "windgrass [5]": {"test_system": "windgrass", "test": "Test Example 5: herbicidal effect by foliage application, plastic box (Table 20, symbol L)", "type": "in vivo, windgrass (Apera spica-venti)", "conditions": "foliage application, AAH 320 g/ha, three weeks after application", "how_it_was_run": "as §3"}, "redroot pigweed [6]": {"test_system": "redroot pigweed", "test": "Test Example 5: herbicidal effect by foliage application, plastic box (Table 20, symbol N)", "type": "in vivo, redroot pigweed (Amaranthus retroflexus)", "conditions": "foliage application, AAH 320 g/ha, three weeks after application", "how_it_was_run": "as §3"}, "barnyard grass [7]": {"test_system": "barnyard grass", "test": "Test Example 5: herbicidal effect by foliage application, plastic box (Table 20, symbol H)", "type": "in vivo, barnyard grass (Echinochloa crus-galli)", "conditions": "foliage application, AAH 320 g/ha, three weeks after application", "how_it_was_run": "as §3"}, "green foxtail [8]": {"test_system": "green foxtail", "test": "Test Example 5: herbicidal effect by foliage application, plastic box (Table 20, symbol G)", "type": "in vivo, green foxtail (Setaria viridis)", "conditions": "foliage application, AAH 320 g/ha, three weeks after application", "how_it_was_run": "as §3"}, "Italian ryegrass [9]": {"test_system": "Italian ryegrass", "test": "Test Example 5: herbicidal effect by foliage application, plastic box (Table 20, symbol K)", "type": "in vivo, Italian ryegrass (Lolium multiflorum)", "conditions": "foliage application, AAH 320 g/ha, three weeks after application", "how_it_was_run": "as §3"}, "Japanese bulrush": {"test_system": "Japanese bulrush", "test": "Test Example 1: herbicidal activity, application before weed generation under submerged conditions (Table 16, symbol B)", "type": "in vivo, Japanese bulrush (Schoenoplectus juncoides)", "conditions": "320 g/ha applied herbicide", "how_it_was_run": "as §1"}, "chickweed [10]": {"test_system": "chickweed", "test": "Test Example 4: herbicidal effect by soil treatment (Table 19, symbol P)", "type": "in vivo, common chickweed (Stellaria media)", "conditions": "AAH 320 g/ha", "how_it_was_run": "as §2"}, "Italian ryegrass [11]": {"test_system": "Italian ryegrass", "test": "Test Example 4: herbicidal effect by soil treatment (Table 19, symbol K)", "type": "in vivo, Italian ryegrass (Lolium multiflorum)", "conditions": "AAH 320 g/ha", "how_it_was_run": "as §2"}, "barnyard grass [12]": {"test_system": "barnyard grass", "test": "Test Example 4: herbicidal effect by soil treatment (Table 19, symbol H)", "type": "in vivo, barnyard grass (Echinochloa crus-galli)", "conditions": "AAH 320 g/ha", "how_it_was_run": "as §2"}, "wild oat [13]": {"test_system": "wild oat", "test": "Test Example 4: herbicidal effect by soil treatment (Table 19, symbol I)", "type": "in vivo, wild oat (Avena fatua)", "conditions": "AAH 320 g/ha", "how_it_was_run": "as §2"}, "windgrass [14]": {"test_system": "windgrass", "test": "Test Example 4: herbicidal effect by soil treatment (Table 19, symbol L)", "type": "in vivo, windgrass (Apera spica-venti)", "conditions": "AAH 320 g/ha", "how_it_was_run": "as §2"}, "persian speedwell [15]": {"test_system": "persian speedwell", "test": "Test Example 5: herbicidal effect by foliage application, plastic box (Table 20, symbol R)", "type": "in vivo, Persian speedwell (Veronica persica)", "conditions": "foliage application, AAH 320 g/ha, three weeks after application", "how_it_was_run": "as §3"}, "rice flat sedge": {"test_system": "rice flat sedge", "test": "Test Example 3: herbicidal effect by foliage application, Wagner pot (Table 18, symbol E)", "type": "in vivo, rice flat sedge (Cyperus iria)", "conditions": "320 g/ha", "how_it_was_run": "(§4)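 Plants were sown in alluvial soil held under 0.1–0.5 cm standing water and grown 14 days in a greenhouse at 25–30 °C. An emulsifiable formulation, water-diluted to the set dose, was then sprayed onto the foliage, and effects were scored three weeks later using previously defined criteria.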"}, "lambsquarters [16]": {"test_system": "lambsquarters", "test": "Test Example 5: herbicidal effect by foliage application, plastic box (Table 20, symbol O)", "type": "in vivo, lambsquarters (Chenopodium album)", "conditions": "foliage application, AAH 320 g/ha, three weeks after application", "how_it_was_run": "as §3"}, "southern crabgrass [17]": {"test_system": "southern crabgrass", "test": "Test Example 5: herbicidal effect by foliage application, plastic box (Table 20, symbol F)", "type": "in vivo, southern crabgrass (Digitaria ciliaris)", "conditions": "foliage application, AAH 320 g/ha, three weeks after application", "how_it_was_run": "as §3"}, "wild oat [18]": {"test_system": "wild oat", "test": "Test Example 5: herbicidal effect by foliage application, plastic box (Table 20, symbol I)", "type": "in vivo, wild oat (Avena fatua)", "conditions": "foliage application, AAH 320 g/ha, three weeks after application", "how_it_was_run": "as §3"}, "barnyard grass [19]": {"test_system": "barnyard grass", "test": "Test Example 3: herbicidal effect by foliage application, Wagner pot (Table 18, symbol H)", "type": "in vivo, barnyard grass (Echinochloa crus-galli)", "conditions": "320 g/ha", "how_it_was_run": "as §4"}, "blackgrass [20]": {"test_system": "blackgrass", "test": "Test Example 4: herbicidal effect by soil treatment (Table 19, symbol J)", "type": "in vivo, blackgrass (Alopecurus myosuroides)", "conditions": "AAH 320 g/ha", "how_it_was_run": "as §2"}, "oval-leafed pondweed": {"test_system": "oval-leafed pondweed", "test": "Test Example 1: herbicidal activity, application before weed generation under submerged conditions (Table 16, symbol C)", "type": "in vivo, oval-leafed pondweed (Monochoria vaginalis)", "conditions": "320 g/ha applied herbicide", "how_it_was_run": "as §1"}, "blackgrass [21]": {"test_system": "blackgrass", "test": "Test Example 5: herbicidal effect by foliage application, plastic box (Table 20, symbol J)", "type": "in vivo, blackgrass (Alopecurus myosuroides)", "conditions": "foliage application, AAH 320 g/ha, three weeks after application", "how_it_was_run": "as §3"}, "redroot pigweed [22]": {"test_system": "redroot pigweed", "test": "Test Example 4: herbicidal effect by soil treatment (Table 19, symbol N)", "type": "in vivo, redroot pigweed (Amaranthus retroflexus)", "conditions": "AAH 320 g/ha", "how_it_was_run": "as §2"}, "velvetleaf [23]": {"test_system": "velvetleaf", "test": "Test Example 5: herbicidal effect by foliage application, plastic box (Table 20, symbol M)", "type": "in vivo, velvetleaf (Abutilon theophrasti)", "conditions": "foliage application, AAH 320 g/ha, three weeks after application", "how_it_was_run": "as §3"}, "green foxtail [24]": {"test_system": "green foxtail", "test": "Test Example 4: herbicidal effect by soil treatment (Table 19, symbol G)", "type": "in vivo, green foxtail (Setaria viridis)", "conditions": "AAH 320 g/ha", "how_it_was_run": "as §2"}, "southern crabgrass [25]": {"test_system": "southern crabgrass", "test": "Test Example 4: herbicidal effect by soil treatment (Table 19, symbol F)", "type": "in vivo, southern crabgrass (Digitaria ciliaris)", "conditions": "AAH 320 g/ha", "how_it_was_run": "as §2"}, "Chinese sprangletop": {"test_system": "Chinese sprangletop", "test": "Test Example 3: herbicidal effect by foliage application, Wagner pot (Table 18, symbol D)", "type": "in vivo, chinese sprangletop (Leptochloa chinensis)", "conditions": "320 g/ha", "how_it_was_run": "as §4"}}}
{"smiles": "Cc1nn(C)c(=O)c(-c2c(-c3ccc(C(C)C)cc3)sc3ccccc23)c1O", "note": "[1-125]", "values": [{"measurement": "Herbicidal effect on A: late watergrass (grade 0-5)", "setting": "late watergrass", "result": "3 (Herbicidal rate of 40% or more and less than 70%)"}, {"measurement": "M: velvetleaf, herbicidal effect rating", "setting": "velvetleaf [1]", "result": "1 (Herbicidal rate of 5% or more and less than 20%)"}, {"measurement": "P: chickweed, herbicidal effect", "setting": "chickweed [2]", "result": "5 (Herbicidal rate of 90% or more (almost completely withered))"}, {"measurement": "R: persian speedwell, herbicidal effect rating", "setting": "persian speedwell [3]", "result": "5 (Herbicidal rate of 90% or more (almost completely withered))"}, {"measurement": "O: lambsquarters, herbicidal effect rating", "setting": "lambsquarters [4]", "result": "5 (Herbicidal rate of 90% or more (almost completely withered))"}, {"measurement": "L: windgrass, herbicidal effect", "setting": "windgrass [5]", "result": "5 (Herbicidal rate of 90% or more (almost completely withered))"}, {"measurement": "N: redroot pigweed, herbicidal effect", "setting": "redroot pigweed [6]", "result": "5 (Herbicidal rate of 90% or more (almost completely withered))"}, {"measurement": "H: barnyard grass, herbicidal effect", "setting": "barnyard grass [7]", "result": "5 (Herbicidal rate of 90% or more (almost completely withered))"}, {"measurement": "G: green foxtail, herbicidal effect", "setting": "green foxtail [8]", "result": "5 (Herbicidal rate of 90% or more (almost completely withered))"}, {"measurement": "K: Italian ryegrass, herbicidal effect", "setting": "Italian ryegrass [9]", "result": "5 (Herbicidal rate of 90% or more (almost completely withered))"}, {"measurement": "Herbicidal effect on B: Japanese bulrush (grade 0-5)", "setting": "Japanese bulrush", "result": "0 (Herbicidal rate of 5% or less (almost no effect))"}, {"measurement": "P: chickweed, herbicidal effect rating", "setting": "chickweed [10]", "result": "1 (Herbicidal rate of 5% or more and less than 20%)"}, {"measurement": "K: Italian ryegrass, herbicidal effect rating", "setting": "Italian ryegrass [11]", "result": "5 (Herbicidal rate of 90% or more (almost completely withered))"}, {"measurement": "H: barnyard grass, herbicidal effect rating", "setting": "barnyard grass [12]", "result": "3 (Herbicidal rate of 40% or more and less than 70%)"}, {"measurement": "I: wild oat, herbicidal effect rating", "setting": "wild oat [13]", "result": "0 (Herbicidal rate of 5% or less (almost no effect))"}, {"measurement": "L: windgrass, herbicidal effect rating", "setting": "windgrass [14]", "result": "0 (Herbicidal rate of 5% or less (almost no effect))"}, {"measurement": "R: persian speedwell, herbicidal effect", "setting": "persian speedwell [15]", "result": "5 (Herbicidal rate of 90% or more (almost completely withered))"}, {"measurement": "herbicidal effect on E (rice flat sedge), rating 0-5", "setting": "rice flat sedge", "result": "5 (Herbicidal rate of 90% or more (almost completely withered))"}, {"measurement": "O: lambsquarters, herbicidal effect", "setting": "lambsquarters [16]", "result": "5 (Herbicidal rate of 90% or more (almost completely withered))"}, {"measurement": "F: southern crabgrass, herbicidal effect", "setting": "southern crabgrass [17]", "result": "3 (Herbicidal rate of 40% or more and less than 70%)"}, {"measurement": "I: wild oat, herbicidal effect", "setting": "wild oat [18]", "result": "0 (Herbicidal rate of 5% or less (almost no effect))"}, {"measurement": "herbicidal effect on H (barnyard grass), rating 0-5", "setting": "barnyard grass [19]", "result": "5 (Herbicidal rate of 90% or more (almost completely withered))"}, {"measurement": "J: blackgrass, herbicidal effect rating", "setting": "blackgrass [20]", "result": "0 (Herbicidal rate of 5% or less (almost no effect))"}, {"measurement": "Herbicidal effect on C: oval-leafed pondweed (grade 0-5)", "setting": "oval-leafed pondweed", "result": "0 (Herbicidal rate of 5% or less (almost no effect))"}, {"measurement": "J: blackgrass, herbicidal effect", "setting": "blackgrass [21]", "result": "2 (Herbicidal rate of 20% or more and less than 40%)"}, {"measurement": "N: redroot pigweed, herbicidal effect rating", "setting": "redroot pigweed [22]", "result": "5 (Herbicidal rate of 90% or more (almost completely withered))"}, {"measurement": "M: velvetleaf, herbicidal effect", "setting": "velvetleaf [23]", "result": "5 (Herbicidal rate of 90% or more (almost completely withered))"}, {"measurement": "G: green foxtail, herbicidal effect rating", "setting": "green foxtail [24]", "result": "3 (Herbicidal rate of 40% or more and less than 70%)"}, {"measurement": "F: southern crabgrass, herbicidal effect rating", "setting": "southern crabgrass [25]", "result": "1 (Herbicidal rate of 5% or more and less than 20%)"}, {"measurement": "herbicidal effect on D (Chinese sprangletop), rating 0-5", "setting": "Chinese sprangletop", "result": "4 (Herbicidal rate of 70% or more and less than 90%)"}]}
